{"source": "paper PMC10102062", "about": "“Effects of DPTQ, a novel positive allosteric modulator of the dopamine D1 receptor, on spontaneous eye blink rate and spatial working memory in the nonhuman primate” (Psychopharmacology, 2023)", "key": {"human D1": {"system": "human D1", "design": "method as in Hao et al. [2019]", "conditions": "stably transfected human D1 cloned cells; ref Hao et al. [2019]; read-out: EC50 for potentiation of the dopamine-induced increase in cAMP; cited from earlier work"}, "rhesus monkey": {"system": "rhesus monkey", "assay": "Spatial delayed response working memory task", "format": "in vivo, rhesus and one stumptail macaque", "conditions": "for Delay-dependent errors: 0.1 mg/kg; for Delay-dependent errors at short delays: 1.0 mg/kg", "protocol": "Sixteen rhesus and one stumptail macaque participated in the study (details provided below) that was performed at Yale University, New Haven CT, USA. Animals were used and cared for in full accordance with Yale University’s IACUC guidelines and polices in addition to all U.S. Federal policies and regulations. The monkeys were fed their normal diet each day, including appropriately nutritional biscuits and multiple fruits and vegetables for enrichment. Testing and any training occurred just before their main food course. This food consisted of biscuits, delivered each day, and all animals had full 24-h access to ad libitum water. Participation in cognitive testing was ensured by the enrichment of the environmental stimulation and the provision of the animals’ favorite food treats as rewards in the task, including yoghurt, raisins, almonds, grapes, fruit loops, and multiple other food items (Roberts et al [2010]).\nThe circuitry involved in this response is almost exclusively “dorsal stream” involving dorsolateral prefrontal cortex, particularly Area 46, and the lateral intraparietal sulcus (Goldman-Rakic [1996]). For a full description of the task used here, see Roberts et al. ([2010]). Animals were tested in a sound-attenuated room incorporating a testing chamber. In this task one of several well locations is baited with food in view of the animal and the wells are then covered with identical plaques. An opaque shutter is then lowered for one of 5 variable delays and then raised to allow the animal to make a response to one of the well locations to retrieve the food. Each delay length was repeated 4 times in a semirandom distribution across the 20 trials in each testing session. Each animal was stabilized prior to commencing any administration by gradually incrementing the number of wells (starting at just 2) and the lengths of the delay. The 5 variable delay lengths were set at 0, 1, 2, 3, and 4 s multiplied by a factor “N.” Thus, N was incremented by 1 up to a maximum of 10 until the subject performed at 80% or more across 3 consecutive test sessions whereupon the number of wells was incremented by 1. This process was repeated for each individual until they reached stable performance (65–75% ± ≤ 2.5% correct). This normalized level of performance allows for the sensitive detection of any impairment or improvement produced by experimental conditions. For baseline data for this study, we took 7 or more consecutive data points that had been collected in previous weeks which fell within the stable limits for the test. For the total group of 17 animals participating in this study, the median well number was 4 (range 2–7) and the median N value was 3 (range 1–7). Animals were typically tested 2 to 3 days a week.\nDPTQ (free base, Eli Lilly & Co.) was prepared as described above for the spontaneous eye blink test. Animals (4 males and 6 females, mean age = 22.1 ± 1.7 years) were originally assigned to receive either vehicle or DPTQ 2.5 mg/kg IM in a semi-random design. One animal received vehicle but was not dosed with DPTQ. This same group of animals was later used in a repeated dosing study with DPTQ 2.5 mg/kg vs vehicle. After a protracted washout period of several months we tested the lower doses of 0.1 mg/kg and 1.0 mg/kg in ascending order. This group of 10 animals included 3 from the previous study (3 males, 7 females (including one aged stumptail macaque); average age = 22.6 ± 1.7 years). The youngest animal in this study was aged 17.3 years. None of the animals were naïve and had all been used in previous studies with other compounds. They were given an extensive washout of weeks or months prior to this study and were established to have normal baseline performance on the task. During the study, animals were washed out based on known PK properties (half-life) of this drug as well as the baseline performance of each individual animal. […]"}, "[1]": {"design": "method as in Hao et al. [2019]", "conditions": "after systemic dosing; ref Hao et al. [2019]; cited from earlier work"}}}
{"compound": "C[C@H]1c2cccc(CC(C)(C)O)c2C[C@H](CO)N1C(=O)Cc1c(Cl)cccc1Cl", "note": "[DPTQ]", "values": [{"measurement": "EC50", "setting": "human D1", "value": 76, "unit": "nM"}, {"measurement": "Working memory performance over 2 weeks", "setting": "rhesus monkey; 0.1 mg/kg IM, n = 10, no diminution on day 3, p = 0.014", "value": "modest enhancement of working memory"}, {"measurement": "Delay-dependent errors", "setting": "rhesus monkey; day 1, short (0, 1) N and long (3, 4) N delays", "value": "slight increase in errors"}, {"measurement": "Delay-dependent errors", "setting": "rhesus monkey; day 5, particularly long delays", "value": "small but non-significant decrease in errors"}, {"measurement": "Working memory performance over 2 weeks", "setting": "rhesus monkey; 1.0 mg/kg IM, n = 8, p = 0.006, strongest day 4 p < 0.0001", "value": "significant improvement in working memory"}, {"measurement": "Delay-dependent errors at short delays", "setting": "rhesus monkey; day 1", "value": "no reduction in errors"}, {"measurement": "Delay-dependent errors at short delays", "setting": "rhesus monkey; day 5", "value": "reduction"}, {"measurement": "Working memory performance day 3", "setting": "rhesus monkey; 2.5 mg/kg IM on days 1 and 5, n = 6", "value": "non-significant dip"}, {"measurement": "Working memory performance day 6", "setting": "rhesus monkey; 2.5 mg/kg IM on days 1 and 5, day after repeat dose", "value": "reduction in performance to baseline"}, {"measurement": "Working memory performance days 8-14", "setting": "rhesus monkey; 2.5 mg/kg IM on days 1 and 5, days 8, 12 p < 0.05, days 10, 14 p < 0.01", "value": "enhancement"}, {"measurement": "Working memory performance days 4 and 5", "setting": "rhesus monkey; 2.5 mg/kg IM on days 1 and 5, p < 0.01", "value": "rebound enhancement"}, {"measurement": "Working memory performance, acute effect", "setting": "rhesus monkey; 2.5 mg/kg IM single dose, day 1, 1 h post injection, n = 9", "value": "No immediate acute effect"}, {"measurement": "Diminution of performance", "setting": "rhesus monkey; 2.5 mg/kg IM single dose, day 2", "value": 10, "unit": "%"}, {"measurement": "Mean performance score", "setting": "rhesus monkey; 2.5 mg/kg IM single dose, day 3, p = 0.025 vs baseline, baseline 65–75% correct", "value": 61.1}, {"measurement": "Mean performance score", "setting": "rhesus monkey; 2.5 mg/kg IM single dose, day 4, improvement days 4, 5, 6 p < 0.01", "value": 84.3}, {"measurement": "Working memory deficit on day 3", "setting": "rhesus monkey; 2.5 mg/kg day 1, vehicle day 5, n = 10, p = 0.278 vs baseline", "value": "small and did not achieve significance"}, {"measurement": "Working memory performance days 4-12", "setting": "rhesus monkey; 2.5 mg/kg day 1, vehicle day 5, days 4, 8 p < 0.001, day 5 p < 0.0001, days 10, 12 p < 0.05", "value": "enhancement"}, {"measurement": "Dose range over which procognitive effects were observed", "setting": "rhesus monkey; 0.1 to 2.5 mg/kg IM", "value": "at least 25 fold"}, {"measurement": "Acute effect on spatial working memory", "setting": "rhesus monkey; 1 h after injection, regardless of the dose administered", "value": "entirely null acute effect"}, {"measurement": "Score on day 3 at 0.1 and 1.0 mg/kg compared with 2.5 mg/kg", "setting": "rhesus monkey; day 3, p < 0.01, p < 0.05 respectively", "value": "significantly higher score"}, {"measurement": "Score on day 4 at 2.5 mg/kg compared with 0.1 mg/kg", "setting": "rhesus monkey; day 4", "value": "significantly greater"}, {"measurement": "Difference in scores attributable to dose", "setting": "rhesus monkey; day 5, 0.1, 1.0, 2.5 mg/kg", "value": "No difference"}, {"measurement": "Brain penetration", "setting": "[1]", "value": "acceptable brain penetration"}]}
